Laboratory results published in US10407382B2, “EP4 agonists as therapeutic compounds” (ALLERGAN, INC., priority 2014, dated 2019).

What was measured:
EP4 [1] = molecular target: T1, EP4 (Homo sapiens, UniProt P35408); test: Radioligand binding, EP4; set-up: expressed in transfected cells; membrane fraction; details: [3H]PGE2 competition
Method: (§1) Data from running binding and activity studies on the compounds of the invention were carried out as described in U.S. Pat. No. 7,427,685, the contents of which are incorporated herein by reference.
(§2) Cells Stably Expressing EP1, EP2, EP4, and FP Receptors
(§3) HEK-293 cells stably expressing the human or feline FP receptor, or EP1, EP2, or EP4 receptors were washed with TME buffer, scraped from the bottom of the flasks, and homogenized for 30 sec using a Brinkman PT 10/35 polytron. TME buffer was added to achieve a final 40 ml volume in the centrifuge tubes (the composition of TME is 100 mM TRIS base, 20 mM MgCl2, […]; ION HCl is added to achieve a pH of 7.4).
(§4) The cell homogenate was centrifuged at 19000 rpm for 20 min at 4° C. using a Beckman Ti-60 rotor. The resultant pellet was resuspended in TME buffer to give a final 1 mg/ml protein concentration, as determined by Biorad assay. Radioligand binding competition assays vs. [^3H-]17-phenyl PGF2α (5 nM) were performed in a 100 μl volume for 60 min. Binding reactions were started by adding plasma membrane fraction. The reaction was terminated by the addition of 4 ml ice-cold TRIS-HCl buffer and rapid filtration through glass fiber GF/B filters using a Brandel cell harvester. The filters were washed 3 times with ice-cold buffer and oven dried for one hour.
(§5) [^3H-] PGE2 (specific activity 180 Ci mmol) was used as the radio ligand for EP receptors. [^3H] 17-phenyl PGF2α was employed for FP receptor binding studies. Binding studies employing EP1, EP2, EP4 and FP receptors were performed in duplicate in at least three separate experiments. A 200 μl assay volume was used. Incubations were for 60 min at 25° C. and were terminated by the addition of 4 ml of ice-cold 50 mM TRIS-HCl, followed by rapid filtration through Whatman GF/B filters and three additional 4 ml washes in a cell harvester (Brandel). Competition studies were performed using a final concentration of 5 nM [^3H]-PGE2, or 5 nM [^3H] 17-phenyl PGF2α and non-specific binding determined with 10^−5M of unlabeled PGE2, or 17-phenyl PGF2α, according to receptor subtype studied.

EP4 [2] = molecular target: T1, EP4; test: cAMP assay, EP4; assay type: cell-based; set-up: expressed in transfected cells; host or cells: HEK-EBNA cells; details: HEK-EBNA cells expressing EP4
Method: A 384-well drug plate was prepared to contain 6 test compounds, PGE2 and cAMP in 16 serial dilutions in triplicate, using a Biomek station. HEK-EBNA cells expressing a target PG receptor subtype (EP2 or EP4) were suspended in a stimulation buffer (HBSS, 0.1% BSA, 0.5 mM IBMX and 5 mM HEPES, pH 7.4) in a density of 10^4 cells/5 μL. The reaction was initiated by mixing 5 μL drug dilutions with 5 μL of HEK-EBNA cells in a well, carried out for 30 min at room temperature, and followed by the addition of 5 μL anti-cAMP acceptor beads in the control buffer with Tween-20 (25 mM NaCl, 0.03% Tween-20, 5 mM HEPES, pH 7.4). After 30 min in the dark at room temperature, the mixtures were incubated with 15 μL biotinylated-cAMP/strepavidin donor beads in Lysis/Detection buffer (0.1% BSA, 0.3% Tween-20 and 5 mM HEPES, pH 7.4) for 45 min at the room temperature. Fluorescence changes were read using a Fusion-alpha HT microplate reader.

EP2 = EP2 (Homo sapiens, UniProt P43116); test: Ki competition binding, EP2; set-up: expressed in transfected cells; details: [3H]PGE2 competition; NA = no activity
Chain of EP2 (P43116 whole entry): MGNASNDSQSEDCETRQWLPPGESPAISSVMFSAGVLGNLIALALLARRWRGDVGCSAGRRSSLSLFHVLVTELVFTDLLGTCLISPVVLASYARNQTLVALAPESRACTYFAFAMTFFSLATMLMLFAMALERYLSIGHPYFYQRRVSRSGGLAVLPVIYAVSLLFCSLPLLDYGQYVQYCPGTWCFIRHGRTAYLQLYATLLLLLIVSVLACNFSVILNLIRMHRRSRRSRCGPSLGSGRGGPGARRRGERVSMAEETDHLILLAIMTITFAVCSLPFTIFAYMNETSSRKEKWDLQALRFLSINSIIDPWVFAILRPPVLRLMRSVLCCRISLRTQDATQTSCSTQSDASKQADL
Method: as §1
Competition binding experiments were performed in a medium containing Hank's balanced salt solution, Hepes 20 mM, pH 7.3, membranes (˜60 μg protein) or 2×10^5 cells from HEK 293 cells stably expressing human EP2 receptors, [^3H]PGE2 (10 nM) and various concentrations of test compounds in a total volume of 300 μl. Reaction mixtures were incubated at 23° C. for 60 min, and were filtered over Whatman GF IB filters under vacuum. Filters were washed three times with 5 ml ice-cold buffer containing 50 mM Tris/HCl (PH 7.3). Non-specific binding was estimated in the presence of excess unlabeled PGE2 (10 μM). Binding data fitted to the binding model for a single class of binding sites, using nonlinear regression analysis. IC50 values thus obtained were converted to Ki using the equation of Ki=(IC50/(1+[L]/KD) where [L] represents PGE2 concentration (10 nM) and KD the dissociation constant for [^3H]PGE2 at human EP2 receptors (40 nM).
as §2, §3, §4, §5

T1 sequence (P35408 whole entry): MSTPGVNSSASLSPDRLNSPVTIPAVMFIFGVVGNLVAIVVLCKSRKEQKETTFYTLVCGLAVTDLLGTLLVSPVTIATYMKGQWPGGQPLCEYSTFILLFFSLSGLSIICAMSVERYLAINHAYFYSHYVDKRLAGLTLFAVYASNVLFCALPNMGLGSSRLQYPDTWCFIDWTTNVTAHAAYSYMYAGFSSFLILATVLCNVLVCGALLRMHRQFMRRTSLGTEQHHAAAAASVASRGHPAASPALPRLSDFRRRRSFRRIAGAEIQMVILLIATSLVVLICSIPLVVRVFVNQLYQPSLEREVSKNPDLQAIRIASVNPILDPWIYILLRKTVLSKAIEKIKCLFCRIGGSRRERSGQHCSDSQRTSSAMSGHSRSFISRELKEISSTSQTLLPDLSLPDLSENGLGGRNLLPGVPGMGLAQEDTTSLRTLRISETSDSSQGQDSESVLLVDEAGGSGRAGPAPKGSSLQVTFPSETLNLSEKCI

| SMILES | Ki (EP4 [1]) [nM] | EC50 (EP4 [2]) [nM] | EP4 data cAMP EC50 (EP4 [2]) | Ki (EP2) [nM] |
| --- | --- | --- | --- | --- |
| COc1cc(CC2CCCC2C(=O)NCc2ccc(C(=O)O)cc2)cc(OC)c1 (single isomer, unassigned) [Example 2, 4-((2-(3,5-Dimethoxybenzyl)cyclopentanecarboxamido)methyl)benzoic Acid] | 84 | 9 | – | > 10000 |
| COc1cccc(CC2CCCCC2C(=O)NCc2ccc(C(=O)O)cc2)c1OC (single isomer, unassigned) [Example 15, 4-((2-(2,3-Dimethoxybenzyl)cyclohexanecarboxamido)methyl)benzoic Acid] | 17 | > 10000 | – | 7480 |
| COc1cccc(CC2CCCCC2C(=O)NCc2ccc(C(=O)O)cc2)c1OC (single isomer, unassigned) [Example 16, 4-((2-(2,3-Dimethoxybenzyl)cyclohexanecarboxamido)methyl)benzoic Acid] | 114 | > 10000 | – | 4120 |
| COc1ccc(CC2CCCCC2C(=O)NCc2ccc(C(=O)O)cc2)cc1OC (single isomer, unassigned) [Example 22, 4-((2-(3,4-Dimethoxybenzyl)cyclohexanecarboxamido)methyl)benzoic Acid] | 4 | > 10000 | – | – |
| COc1ccc(CC2CCCCC2C(=O)NCc2ccc(C(=O)O)cc2)cc1OC (single isomer, unassigned) [Example 23, 4-((2-(3,4-Dimethoxybenzyl)cyclohexanecarboxamido)methyl)benzoic Acid] | 8 | > 10000 | – | – |
| COc1cccc(CC2CCCCC2C(=O)NCc2ccc(C(=O)O)cc2)c1 (single isomer, unassigned) [Example 28, 4-((2-(3-Methoxybenzyl)cyclohexanecarboxamido)methyl)benzoic Acid] | 4 | > 10000 | – | 2350 |
| COc1cccc(CC2CCCCC2C(=O)NCc2ccc(C(=O)O)cc2)c1 (single isomer, unassigned) [Example 29, 4-((2-(3-Methoxybenzyl)cyclohexanecarboxamido)methyl)benzoic Acid] | 19 | 4 | – | 2570 |
| COc1ccccc1CC1CCCCC1C(=O)NCc1ccc(C(=O)O)cc1 (single isomer, unassigned) [Example 31, 4-((2-(2-Methoxybenzyl)cyclohexanecarboxamido)methyl)benzoic Acid] | 5 | > 10000 | – | 994 |
| CN(Cc1ccc(C(=O)O)cc1)C(=O)C1=C(Cc2cccc(C(F)(F)F)c2)CCC1 [Example 7, 4-((N-Methyl-2-(3-(trifluoromethyl)benzyl)cyclopent-1-enecarboxamido)methyl)benzoic Acid] | 1570 | – | – | – |
| COc1ccc(OC)c(CC2=C(C(=O)NCc3ccc(C(=O)O)cc3)CCCC2)c1 [Example 17, 4-((2-(2,5-Dimethoxybenzyl)cyclohex-1-enecarboxamido)methyl)benzoic Acid] | 8 | > 10000 | – | 403 |
| COc1cc(CC2=C(C(=O)NCc3ccc(C(=O)O)cc3)C3CCC2C3)cc(OC)c1 (centres unmarked) [Example 36, 4-((3-(3,5-Dimethoxybenzyl)bicyclo[2.2.1]hept-2-ene-2-carboxamido)methyl)benzoic Acid] | 1010 | – | – | – |
| COc1cc(CC2C3CCC(C3)C2C(=O)NCc2ccc(C(=O)O)cc2)cc(OC)c1 (centres unmarked) [Example 38, 4-((3-(3,5-Dimethoxybenzyl)bicyclo[2.2.1]heptane-2-carboxamido)methyl)benzoic Acid] | 402 | > 10000 | – | – |

Further lines, results first:

| Ki (EP4 [1]) [nM] | EC50 (EP4 [2]) [nM] | EP4 data cAMP EC50 (EP4 [2]) | Ki (EP2) [nM] | SMILES |
| --- | --- | --- | --- | --- |
| 323 | > 10000 | – | – | COc1cc(/C=C2\[C@@H]3CC[C@@H](C3)[C@H]2C(=O)NCc2ccc(C(=O)O)cc2)cc(OC)c1 (racemic) [Example 37, 4-(((1S,2R,4R,E)-3-(3,5-Dimethoxybenzylidene)bicyclo[2.2.1]heptane-2-carboxamido)methyl)benzoic Acid] |
| 77 | > 10000 | – | – | COc1cc(CC2C3CCC(C3)C2C(=O)NCc2ccc(C(=O)O)cc2)cc(OC)c1 (racemic) [Example 39, 4-((3-(3,5-Dimethoxybenzyl)bicyclo[2.2.1]heptane-2-carboxamido)methyl)benzoic Acid] |
| 30 | – | weak | 6190 | COc1cc(CC2CCCC2C(=O)NCc2ccc(C(=O)O)cc2)cc(OC)c1 (single isomer, unassigned) [Example 1, 4-((2-(3,5-Dimethoxybenzyl)cyclopentanecarboxamido)methyl)benzoic Acid] |
| 16 | > 10000 | – | 462 | COc1ccc(OC)c(CC2CCCCC2C(=O)NCc2ccc(C(=O)O)cc2)c1 (single isomer, unassigned) [Example 18, 4-((2-(2,5-Dimethoxybenzyl)cyclohexanecarboxamido)methyl)benzoic Acid] |
| 2 | 0.2 | – | 393 | COc1ccc(OC)c(CC2CCCCC2C(=O)NCc2ccc(C(=O)O)cc2)c1 (single isomer, unassigned) [Example 19, 4-((2-(2,5-Dimethoxybenzyl)cyclohexanecarboxamido)methyl)benzoic Acid] |
| 58 | > 10000 | – | 4950 | O=C(O)c1ccc(CNC(=O)C2CCCCC2Cc2ccccc2)cc1 (single isomer, unassigned) [Example 25, 4-((2-Benzylcyclohexanecarboxamido)methyl)benzoic Acid] |
| 116 | 35 | – | 2920 | O=C(O)c1ccc(CNC(=O)C2CCCCC2Cc2ccccc2)cc1 (single isomer, unassigned) [Example 26, 4-((2-Benzylcyclohexanecarboxamido)methyl)benzoic Acid] |
| 7 | > 10000 | – | 1320 | COc1ccccc1CC1CCCCC1C(=O)NCc1ccc(C(=O)O)cc1 (single isomer, unassigned) [Example 32, 4-((2-(2-Methoxybenzyl)cyclohexanecarboxamido)methyl)benzoic Acid] |
| 44 | > 10000 | – | > 10000 | COc1ccc(CC2CCCCC2C(=O)NCc2ccc(C(=O)O)cc2)cc1 (single isomer, unassigned) [Example 34, 4-((2-(4-Methoxybenzyl)cyclohexanecarboxamido)methyl)benzoic Acid] |
| 86 | > 10000 | – | > 10000 | COc1ccc(CC2CCCCC2C(=O)NCc2ccc(C(=O)O)cc2)cc1 (single isomer, unassigned) [Example 35, 4-((2-(4-Methoxybenzyl)cyclohexanecarboxamido)methyl)benzoic Acid] |
| 45 | > 10000 | – | 1190 | COc1cccc(CC2=C(C(=O)NCc3ccc(C(=O)O)cc3)CCCC2)c1OC [Example 14, 4-((2-(2,3-Dimethoxybenzyl)cyclohex-1-enecarboxamido)methyl)benzoic Acid] |
| 4 | > 10000 | – | – | COc1ccc(CC2=C(C(=O)NCc3ccc(C(=O)O)cc3)CCCC2)cc1OC [Example 21, 4-((2-(3,4-Dimethoxybenzyl)cyclohex-1-enecarboxamido)methyl)benzoic Acid] |
